Like-named read-outs stand apart in the source and are kept apart here.
Assays:
Aurora-B = molecular target: T1, Aurora-B (Homo sapiens, UniProt Q96GD4); experiment: Cell-free kinase assay (ALPHA technology), Aurora-B; format: biochemical
T1 construct: in some cases as full-length kinases, in some cases as truncated fragments; purchased Upstate/Millipore #14-835
Method: The kinase reaction was stopped by adding 10 μl of the ALPHA bead mix (10 μg/ml, #6760617/PerkinElmer), pre-incubated with anti-phospho PLK antibody (100 pM, #5070, Cell Signaling), in 25 mM Tris, 200 mM NaCl, 100 mM EDTA and 0.3% BSA, and left to stand overnight. The luminiscence was detected the next morning in a Envision instrument (Perkin Elmer). […] 0% controls contained no ATP whereas the 100% controls contained no test substance. The IC50 values were determined with GraphPadPrism.

cRaf-Mek1-Erk2 = cRaf-Mek1-Erk2 (Homo sapiens, UniProt P04049+P28482+Q02750); settings: read-out: IC50 cRaf-Mek-Erk; at 10 μM ATP
cRaf-Mek1-Erk2, sequence (P04049 whole entry, the tested form may be a part): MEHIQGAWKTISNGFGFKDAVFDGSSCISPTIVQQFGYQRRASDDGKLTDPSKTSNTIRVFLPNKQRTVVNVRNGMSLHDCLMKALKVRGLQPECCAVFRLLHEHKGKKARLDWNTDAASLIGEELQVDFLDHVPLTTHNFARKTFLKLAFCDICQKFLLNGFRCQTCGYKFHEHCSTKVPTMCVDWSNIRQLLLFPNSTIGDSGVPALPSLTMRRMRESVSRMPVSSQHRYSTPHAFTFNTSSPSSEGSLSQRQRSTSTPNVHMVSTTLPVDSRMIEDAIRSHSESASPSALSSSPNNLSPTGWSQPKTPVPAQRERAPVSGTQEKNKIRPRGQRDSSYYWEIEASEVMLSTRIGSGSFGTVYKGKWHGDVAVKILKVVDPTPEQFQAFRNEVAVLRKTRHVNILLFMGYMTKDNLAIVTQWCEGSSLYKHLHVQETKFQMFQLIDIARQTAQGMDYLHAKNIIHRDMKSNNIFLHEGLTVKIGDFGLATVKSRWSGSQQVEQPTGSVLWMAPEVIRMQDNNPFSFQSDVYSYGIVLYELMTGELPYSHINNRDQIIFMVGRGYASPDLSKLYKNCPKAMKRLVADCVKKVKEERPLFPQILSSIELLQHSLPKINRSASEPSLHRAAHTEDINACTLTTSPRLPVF
cRaf-Mek1-Erk2, sequence (Q02750 whole entry, the tested form may be a part): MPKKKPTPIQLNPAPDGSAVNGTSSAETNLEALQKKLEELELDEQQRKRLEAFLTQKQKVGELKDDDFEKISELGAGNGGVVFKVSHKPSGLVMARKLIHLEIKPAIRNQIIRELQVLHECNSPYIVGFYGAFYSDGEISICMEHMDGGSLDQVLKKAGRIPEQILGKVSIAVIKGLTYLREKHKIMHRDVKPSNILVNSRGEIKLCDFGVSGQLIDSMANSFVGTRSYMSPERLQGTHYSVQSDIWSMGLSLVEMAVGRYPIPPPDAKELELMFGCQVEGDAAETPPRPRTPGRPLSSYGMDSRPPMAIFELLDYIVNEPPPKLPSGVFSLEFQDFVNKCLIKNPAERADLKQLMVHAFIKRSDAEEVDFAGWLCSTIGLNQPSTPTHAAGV
cRaf-Mek1-Erk2, sequence (P28482 2-360): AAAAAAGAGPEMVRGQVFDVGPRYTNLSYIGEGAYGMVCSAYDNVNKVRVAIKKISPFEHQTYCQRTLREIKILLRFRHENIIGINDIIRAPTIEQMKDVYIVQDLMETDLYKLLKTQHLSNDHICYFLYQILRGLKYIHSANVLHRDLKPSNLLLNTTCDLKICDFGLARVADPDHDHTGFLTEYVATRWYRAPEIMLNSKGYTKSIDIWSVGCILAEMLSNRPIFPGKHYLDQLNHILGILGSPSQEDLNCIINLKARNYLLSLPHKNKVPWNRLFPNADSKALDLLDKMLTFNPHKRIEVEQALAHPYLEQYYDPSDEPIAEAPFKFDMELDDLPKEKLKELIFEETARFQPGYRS
Method: The inhibitory effect of the inventive compounds was tested on various human serine/threonine kinases and tyrosine kinases in enzymatic assays. Recombinant human kinases, for example Aurora-B, cRaf-Mek1-Erk2, Erk2, Pim-1, HIPK1, KDR, TrkA, Yes, c-Abl and others were used, in some cases as full-length kinases, in some cases as truncated fragments—but at least consisting of the functional kinase domains. The commercial kinase proteins (Proqinase, Millipore) were used as recombinant fusion proteins with GST (glutathione S-transferase) tag or His tag. Depending on the substrate type, the different kinase reactions were quantified by suitable ALPHA™ beads (PerkinElmer).
The calculation of % inhibition values per substance concentration was done by means of the following formula from the raw data determined in the Envision reader:
(§1) The controls were determined 16 fold. 0% controls contained no ATP whereas the 100% controls contained no test substance. The IC50 values were determined with GraphPadPrism.

Erk2 = molecular target: T2, Erk2 (Homo sapiens, UniProt P28482); experiment: Cell-free kinase assay (ALPHA technology), Erk2; format: biochemical; settings: for IC50: at 10 μM ATP; for dual activity against Aurora-B and Erk2 (or cRaf-Mek-Erk cascade respectively): in words
T2 construct: in some cases as full-length kinases, in some cases as truncated fragments
T2 sequence (P28482 whole entry, the tested form may be a part): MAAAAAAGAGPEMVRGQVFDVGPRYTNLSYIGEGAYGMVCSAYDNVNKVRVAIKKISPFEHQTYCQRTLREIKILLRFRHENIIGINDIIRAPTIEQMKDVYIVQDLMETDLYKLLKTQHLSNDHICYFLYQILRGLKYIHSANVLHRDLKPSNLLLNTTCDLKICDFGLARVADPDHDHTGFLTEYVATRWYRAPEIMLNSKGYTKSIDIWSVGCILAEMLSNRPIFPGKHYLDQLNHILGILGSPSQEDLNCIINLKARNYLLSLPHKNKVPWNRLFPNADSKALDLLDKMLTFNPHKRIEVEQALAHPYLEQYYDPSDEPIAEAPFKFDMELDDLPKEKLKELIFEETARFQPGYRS
Method: as §1

[1] = at 10 μM ATP, read-out: IC50 Aurora-B
[2] = read-out: IC50 values against Aurora-B

T1 sequence (Q96GD4 whole entry, the tested form may be a part): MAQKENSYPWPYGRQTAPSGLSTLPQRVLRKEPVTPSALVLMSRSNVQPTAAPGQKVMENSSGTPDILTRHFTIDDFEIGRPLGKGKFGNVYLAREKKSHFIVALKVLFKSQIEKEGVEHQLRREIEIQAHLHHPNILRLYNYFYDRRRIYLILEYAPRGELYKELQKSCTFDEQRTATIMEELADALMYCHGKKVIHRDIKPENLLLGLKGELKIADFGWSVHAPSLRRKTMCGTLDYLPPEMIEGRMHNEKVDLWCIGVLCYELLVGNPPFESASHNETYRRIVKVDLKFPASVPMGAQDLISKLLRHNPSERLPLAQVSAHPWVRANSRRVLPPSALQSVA

Row | SMILES | melting point | IC50 (Aurora-B; [1]) | IC50 (cRaf-Mek1-Erk2) | IC50 (Erk2) | dual activity against Aurora-B and Erk2 (or cRaf-Mek-Erk cascade respectively) (Erk2) | IC50 (Aurora-B; [2])
1 | CCNC(=S)Nc1ccc2ncc(Nc3cc(OC)c(OC)c(OC)c3)cc2n1 [Compound 6, 1-Ethyl-3-[7-(3,4,5-trimethoxy-phenylamino)-[1,5]naphthyridin-2-yl]-thiourea] | 237 to 238 °C |  |  |  |  | 
2 | CC(C)NC(=O)Nc1ccnc2cc(-c3cnn(C)c3)cnc12 [Compound 30, 1-Isopropyl-3-[7-(1-methyl-1H-pyrazol-4-yl)-[1,5]naphthyridin-4-yl]-urea] |  | 137 nM | 2170 nM | > 100000 nM |  | 
3 | Cn1cc(-c2cnc3ccc(NC(=O)NC(C)(C)C)nc3c2)cn1 [Compound 26, 1-tert-Butyl-3-[7-(1-methyl-1H-pyrazol-4-yl)-[1,5]naphthyridin-2-yl]-urea] |  | 260 nM | 96 nM | 429 nM | dual activity | 
4 | COc1cc(-c2cnc3c(NC(=O)NC(C)(C)C)ccnc3c2)ccc1O [Compound 12, 1-tert-Butyl-3-[7-(4-hydroxy-3-methoxy-phenyl)-[1,5]naphthyridin-4-yl]-urea] | 158 to 159 °C | 1580 nM | > 31600 nM | > 100000 nM |  | 
5 | CCNC(=O)Nc1ccc2ncc(-c3ccc(OC)cc3)cc2n1 [Compound 1, 1-Ethyl-3-[7-(4-methoxy-phenyl)-[1,5]naphthyridin-2-yl]urea] | 264 to 265 °C | 2230 nM |  |  | dual activity | 
6 | Cn1cc(-c2cnc3c(NC(=O)NC(C)(C)C)ccnc3c2)cn1 [Compound 11, 1-tert-Butyl-3-[7-(1-methyl-1H-pyrazol-4-yl)-[1,5]naphthyridin-4-yl]-urea] | 215 to 216 °C | 112 nM | 12600 nM | > 31600 nM |  | 
7 | Cn1cc(-c2cnc3ccc(NC(=O)NCc4ccccc4)nc3c2)cn1 [Compound 28, 1-Benzyl-3-[7-(1-methyl-1H-pyrazol-4-yl)-[1,5]naphthyridin-2-yl]-urea] | 257 to 258 °C | 579 nM |  |  | dual activity | 
8 | CCNC(=O)Nc1ccnc2cc(-c3cnn(C)c3)cnc12 [Compound 10, 1-Ethyl-3-[7-(1-methyl-1H-pyrazol-4-yl)-[1,5]naphthyridin-4-yl]-urea] | 215 to 216 °C | 38 nM | > 31600 nM | > 100000 nM |  | < 100 nM
9 | Cn1cc(-c2cnc3c(NC(=O)NCCc4ccccc4)ccnc3c2)cn1 [Compound 33, 1-[7-(1-Methyl-1H-pyrazol-4-yl)-[1,5]naphthyridin-4-yl]-3-phenethyl-urea] | 222 to 223 °C | 86 nM | 16600 nM | > 100000 nM |  | 
10 | COc1cc(-c2cnc3ccc(NC(=O)NC(C)(C)C)nc3c2)ccc1O [Compound 4, 1-tert-Butyl-3-[7-(4-hydroxy-3-methoxy-phenyl)-[1,5]naphthyridin-2-yl]-urea] | 286 to 287 °C | 227 nM |  |  | dual activity | 
11 | COc1ccc(-c2cnc3c(NC(=O)NC(C)(C)C)ccnc3c2)cc1OC [Compound 8, 1-tert-Butyl-3-[7-(3,4-dimethoxy-phenyl)-[1,5]naphthyridin-4-yl]-urea] | 215 to 216 °C | 714 nM | ~100000 nM | > 100000 nM |  | 
12 | COc1cc(-c2cnc3c(NC(=O)NC4CC4)ccnc3c2)ccc1O [Compound 14, 1-Cyclopropyl-3-[7-(4-hydroxy-3-methoxy-phenyl)-[1,5]naphthyridin-4-yl]-urea] | 235 to 236 °C | 108 nM | 18100 nM | > 100000 nM |  | 
13 | Cn1cc(-c2cnc3c(NC(=O)NC4CC(F)(F)C4)ccnc3c2)cn1 [Compound 24, 1-(3,3-Difluoro-cyclobutyl)-3-[7-(1-methyl-1H-pyrazol-4-yl)-[1,5]naphthyridin-4-yl]-urea] | 229 to 230 °C | 784 nM | 26200 nM | > 100000 nM |  | 
14 | CCCCCCNC(=O)Nc1ccnc2cc(-c3cnn(C)c3)cnc12 [Compound 25, 1-Hexyl-3-[7-(1-methyl-1H-pyrazol-4-yl)-[1,5]naphthyridin-4-yl]-urea] | 188 to 189 °C | 885 nM | > 100000 nM | > 100000 nM |  | 
15 | Cn1cc(-c2cnc3c(NC(=O)NCc4ccccc4)ccnc3c2)cn1 [Compound 31, 1-Benzyl-3-[7-(1-methyl-1H-pyrazol-4-yl)-[1,5]naphthyridin-4-yl]-urea] | 237 to 238 °C | 66 nM | > 100000 nM | > 100000 nM |  | 
16 | CCCNC(=O)Nc1ccnc2cc(-c3cnn(C)c3)cnc12 [Compound 19, 1-[7-(1-Methyl-1H-pyrazol-4-yl)-[1,5]naphthyridin-4-yl]-3-propyl-urea] | 216 to 217 °C | 26 nM | 9740 nM | > 100000 nM |  | < 100 nM
17 | CCNC(=O)Nc1ccc2ncc(-c3ccc(OC)c(OC)c3)cc2n1 [Compound 2, 1-[7-(3,4-Dimethoxy-phenyl)-[1,5]naphthyridin-2-yl]-3-ethyl-urea] | 218 to 219 °C | 624 nM |  |  | dual activity | 
18 | O=C(Nc1ccnc2cc(-c3ccsc3)cnc12)NC1CC1 [Compound 36, 1-Cyclopropyl-3-(7-thiophen-3-yl-[1,5]naphthyridin-4-yl)-urea] | 228 to 229 °C | 103 nM | 3850 nM | > 100000 nM |  | 
19 | Cn1cc(-c2cnc3ccc(NC(=O)NCCc4ccccc4)nc3c2)cn1 [Compound 5, 1-[7-(1-Methyl-1H-pyrazol-4-yl)-[1,5]naphthyridin-2-yl]-3-phenethyl-urea] | 237 to 238 °C | 171 nM | 8 nM | 733 nM | dual activity | 
20 | O=C(Nc1ccnc2cc(-c3ccccc3)cnc12)NC1CC1 [Compound 39, 1-Cyclopropyl-3-(7-phenyl-[1,5]naphthyridin-4-yl)-urea] | 188 to 190 °C | 889 nM | 20300 nM | > 100000 nM |  | 
21 | O=C(Nc1ccnc2cc(-c3ccc4[nH]ccc4c3)cnc12)NC1CC1 [Compound 40, 1-Cyclopropyl-3-[7-(1H-indol-5-yl)-[1,5]naphthyridin-4-yl]-urea] | 214 to 215 °C | 2120 nM | > 100000 nM | > 100000 nM |  | 
22 | CCNC(=O)Nc1ccnc2cc(-c3ccc(O)c(OC)c3)cnc12 [Compound 9, 1-Ethyl-3-[7-(4-hydroxy-3-methoxy-phenyl)-[1,5]naphthyridin-4-yl]-urea] | 202 to 203 °C | 370 nM | > 31600 nM | ~100000 nM |  | 
23 | CCCCNC(=O)Nc1ccnc2cc(-c3cnn(C)c3)cnc12 [Compound 32, 1-Butyl-3-[7-(1-methyl-1H-pyrazol-4-yl)-[1,5]naphthyridin-4-yl]-urea] | 219 to 220 °C | 164 nM | 12800 nM | > 31600 nM |  | 
24 | Cn1cc(-c2cnc3ccc(NC(=O)Nc4ccccc4)nc3c2)cn1 [Compound 27, 1-[7-(1-Methyl-1H-pyrazol-4-yl)-[1,5]naphthyridin-2-yl]-3-phenyl-urea] |  | 1140 nM | 157 nM | 191 nM | dual activity | 
25 | Cn1cc(-c2cnc3c(NC(=O)NCC(F)(F)F)ccnc3c2)cn1 [Compound 20, 1-[7-(1-Methyl-1H-pyrazol-4-yl)-[1,5]naphthyridin-4-yl]-3-(2,2,2-trifluoro-ethyl)-urea] | > 300 °C | 129 nM | 27300 nM | > 100000 nM |  | 
26 | CC(C)(C)NC(=O)Nc1ccnc2cc(-c3cc(Cl)c(O)c(Cl)c3)cnc12 [Compound 13, 1-tert-Butyl-3-[7-(3,5-dichloro-4-hydroxy-phenyl)-[1,5]naphthyridin-4-yl]-urea] | > 300 °C | 500 nM | 11000 nM | > 100000 nM |  | 
27 | O=C(Nc1ccnc2cc(-c3cn[nH]c3)cnc12)NC1CC1 [Compound 35, 1-Cyclopropyl-3-[7-(1H-pyrazol-4-yl)-[1,5]naphthyridin-4-yl]-urea] | 229 to 231 °C | 85 nM | 4650 nM | > 100000 nM |  | 
28 | O=C(Nc1ccnc2cc(-c3ccnc(F)c3)cnc12)NC1CC1 [Compound 37, 1-Cyclopropyl-3-[7-(2-fluoro-pyridin-4-yl)-[1,5]naphthyridin-4-yl]-urea] | 226 to 229 °C | 935 nM | 10300 nM | > 100000 nM |  | 

— US8461178B2, “Naphthyridine derivatives and the use thereof as kinase inhibitors” (Aeterna Zentaris GmbH, priority 2009, dated 2013)
